The record followed here is ChEMBL document CHEMBL5465560, “Selectivity Literature for EUbOPEN Chemogenomic Library” (2024).

SMILES strings stand for the structures.

In assay [1] the target is T1, Serine/threonine-protein kinase Nek1 (Homo sapiens) (UniProt Q96PY6).
T1 sequence (whole entry): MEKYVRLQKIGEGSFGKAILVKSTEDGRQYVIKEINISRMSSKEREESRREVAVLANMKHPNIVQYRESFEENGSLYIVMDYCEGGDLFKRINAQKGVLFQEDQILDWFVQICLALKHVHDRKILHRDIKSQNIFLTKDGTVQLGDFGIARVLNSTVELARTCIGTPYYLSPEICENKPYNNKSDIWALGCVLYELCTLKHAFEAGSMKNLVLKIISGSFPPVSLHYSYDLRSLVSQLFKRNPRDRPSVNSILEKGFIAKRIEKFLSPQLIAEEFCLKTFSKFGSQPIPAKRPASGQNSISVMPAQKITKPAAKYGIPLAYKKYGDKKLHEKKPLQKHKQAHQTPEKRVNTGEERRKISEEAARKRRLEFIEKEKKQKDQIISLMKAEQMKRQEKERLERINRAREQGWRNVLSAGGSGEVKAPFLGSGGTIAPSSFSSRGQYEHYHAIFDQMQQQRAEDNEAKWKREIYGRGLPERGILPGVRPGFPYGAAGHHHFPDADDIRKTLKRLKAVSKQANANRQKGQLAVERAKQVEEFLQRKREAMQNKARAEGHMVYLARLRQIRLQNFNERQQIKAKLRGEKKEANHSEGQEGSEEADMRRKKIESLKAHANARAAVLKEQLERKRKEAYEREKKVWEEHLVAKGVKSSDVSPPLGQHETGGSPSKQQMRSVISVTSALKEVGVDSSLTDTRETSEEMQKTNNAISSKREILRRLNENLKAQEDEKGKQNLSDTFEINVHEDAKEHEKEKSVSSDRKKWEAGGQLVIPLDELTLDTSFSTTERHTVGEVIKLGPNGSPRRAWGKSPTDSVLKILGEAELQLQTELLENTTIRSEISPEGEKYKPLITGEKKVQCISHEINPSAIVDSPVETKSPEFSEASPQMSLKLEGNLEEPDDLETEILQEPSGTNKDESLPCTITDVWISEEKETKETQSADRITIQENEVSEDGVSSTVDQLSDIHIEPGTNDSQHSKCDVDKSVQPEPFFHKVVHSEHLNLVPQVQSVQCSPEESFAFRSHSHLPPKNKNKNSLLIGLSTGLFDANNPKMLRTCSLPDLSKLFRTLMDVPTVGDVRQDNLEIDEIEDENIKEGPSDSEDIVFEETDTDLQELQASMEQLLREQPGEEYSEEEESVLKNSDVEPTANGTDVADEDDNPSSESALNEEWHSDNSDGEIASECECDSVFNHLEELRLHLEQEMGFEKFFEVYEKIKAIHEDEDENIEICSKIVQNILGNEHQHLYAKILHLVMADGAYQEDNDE
As to the kind of experiment: Selectivity interaction (Kinase panel (Z-LYTE Assay)) EUB0001632a NEK1. The note with it: at 10 µM.

For assay [2], the target named is T2, Mitogen-activated protein kinase kinase kinase 15 (Homo sapiens) (UniProt Q6ZN16).
T2 sequence (whole entry): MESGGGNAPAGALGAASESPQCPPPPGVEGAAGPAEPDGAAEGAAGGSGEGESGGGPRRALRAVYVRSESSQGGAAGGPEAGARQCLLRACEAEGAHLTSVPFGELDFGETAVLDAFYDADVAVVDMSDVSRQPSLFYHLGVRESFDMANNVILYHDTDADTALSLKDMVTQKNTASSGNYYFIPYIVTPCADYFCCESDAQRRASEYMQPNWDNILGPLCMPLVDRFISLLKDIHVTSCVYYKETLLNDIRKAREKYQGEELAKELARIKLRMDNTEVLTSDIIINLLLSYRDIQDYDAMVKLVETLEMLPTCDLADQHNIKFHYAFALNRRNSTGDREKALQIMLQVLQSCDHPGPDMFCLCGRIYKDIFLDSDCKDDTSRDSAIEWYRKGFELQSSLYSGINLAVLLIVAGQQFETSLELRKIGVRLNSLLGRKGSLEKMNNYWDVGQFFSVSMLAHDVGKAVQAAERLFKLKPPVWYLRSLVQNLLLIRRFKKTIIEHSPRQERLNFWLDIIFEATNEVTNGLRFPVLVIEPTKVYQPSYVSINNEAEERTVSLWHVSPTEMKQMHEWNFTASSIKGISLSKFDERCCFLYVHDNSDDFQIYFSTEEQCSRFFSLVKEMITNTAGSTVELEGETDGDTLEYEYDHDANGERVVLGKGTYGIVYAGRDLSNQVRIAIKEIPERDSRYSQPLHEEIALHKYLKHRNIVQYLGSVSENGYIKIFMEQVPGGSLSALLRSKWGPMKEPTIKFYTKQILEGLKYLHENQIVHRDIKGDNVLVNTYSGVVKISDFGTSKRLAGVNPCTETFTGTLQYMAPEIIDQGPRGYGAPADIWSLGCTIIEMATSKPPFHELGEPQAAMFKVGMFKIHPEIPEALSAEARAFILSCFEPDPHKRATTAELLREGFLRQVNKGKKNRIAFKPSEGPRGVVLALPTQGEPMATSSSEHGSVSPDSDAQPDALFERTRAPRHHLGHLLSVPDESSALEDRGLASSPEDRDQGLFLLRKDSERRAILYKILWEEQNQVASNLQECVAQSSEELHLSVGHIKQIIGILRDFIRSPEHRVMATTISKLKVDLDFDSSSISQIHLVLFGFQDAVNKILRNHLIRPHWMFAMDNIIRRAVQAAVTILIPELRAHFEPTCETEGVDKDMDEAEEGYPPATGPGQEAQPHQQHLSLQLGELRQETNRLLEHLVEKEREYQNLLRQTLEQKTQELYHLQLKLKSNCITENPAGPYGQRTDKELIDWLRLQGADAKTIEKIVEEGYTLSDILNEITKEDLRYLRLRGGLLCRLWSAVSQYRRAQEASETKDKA
The assay can be described thus: Selectivity interaction (ActivX KiNativ screen (kinase selectivity in THP-1 cell lysates)) EUB0000639a MAP3K15. It is filed as subcellular. The note with it: lysate.

As for `Cn1cc(-n2cnc3c(NCc4nc5cc(Cl)c(Cl)cc5[nH]4)nc(N4CCOCC4)nc32)cn1`, the % of control in assay [1] is -1.93%.

For the compound `CC[C@@H]1[C@H](F)C(=O)N[C@@H]1COc1nccc2cc(C(N)=O)c(OC)cc12` [ZIMLOVISERTIB], the % of inhibition in assay [2] (at 0.01 µM) was -12.1%; in assay [2] (at 0.04 µM) it was -3.2%; in assay [2] (at 0.2 µM) it was 0%; in assay [2] (at 1 µM), -6.5%; in assay [2] (at 5 µM) it was -21.9%.
